{
  "source": "patent US20230233701A1",
  "about": "(priority 2020, published 2023)",
  "key": {"[1]": {"system": "OVA protein and OB1 peptide", "conditions": "three consecutive injections, C57BL/6J"}, "[2]": {"system": "2D2 CD4 T cells", "experiment": "2D2 CD4 T-cell adoptive transfer and challenge", "conditions": "amount equimolar to the administered […]-MOG35-55 adduct"}},
  "data": [
    {"substance": "OVA protein: free OVA (ovalbumin) protein, equimolar amounts", "values": [
      {"measurement": "IgG antibody responses against OVA protein or OB1 peptide", "setting": "[1]", "value": "readily produced such antibodies"}
    ]},
    {"substance": "MOG35-55: amino acids 35-55 of MOG, MEVGWYRSPFSRVVHLYRNGK (SEQ ID NO: 49) (UniProt Q61885 63-83, looked up, fragment)", "values": [
      {"measurement": "division of 2D2 T cells", "setting": "[2]", "value": "≤ 5", "unit": "%"}
    ]}
  ]
}
